The compounds below were run against recombinant α-synuclein fibrils (Homo sapiens, UniProt P37840) (assay: Thioflavin T competitive binding fluorescence assay). Details: Thioflavin T assay Ki, mean ± SD, at least three experiments, NB = no binding was measurable (concentrations up to 10 μM).

First: COc1ccc2nc(/C=C/c3ccccc3)ccc2c1 [Compound 2, (E)-6-Methoxy-2-styrylquinoline]
Second: COc1ccc2ccc(/C=C/c3ccccc3)nc2c1 [Compound 3, (E)-7-methoxy-2-styrylquinoline]
The Ki of the first is 3.5-fold lower: 0.192 ± 0.001 µM for the first, 0.68 ± 0.139 µM for the second.

With `COc1cc(-c2nc(-c3ccc4cc(OCCF)ccc4n3)no2)ccn1` [Compound 28, 3-(6-(2-Fluoroethoxy)quinolin-2-yl)-5-(2-methoxypyridin-4-yl)-1,2,4-oxadiazole] the Ki was 0.015 ± 0.003 µM.

Same assay, conditions: mean ± SD, at least three experiments, NB = no binding was measurable (concentrations up to 10 μM)

In the case of `COc1cccc2nc(/C=C/c3ccccc3)ccc12` [Compound 1, (E)-5-Methoxy-2-styrylquinoline], the “Thioflavin T assay Ki” value is reported as “no binding”.
`COc1cccc2ccc(/C=C/c3ccccc3)nc12` [Compound 4, (E)-8-Methoxy-2-styrylquinoline] was tested, and the “Thioflavin T assay Ki” value was “no binding”.
For `COc1ccc2nc(/C=C/c3ccnc(F)c3)ccc2c1` [Compound 11, (E)-2-(2-(2-Fluoropyridin-4-yl)vinyl)-6-methoxyquinoline], the “Thioflavin T assay Ki” value was “no binding”.
With `COc1ccc2nc(/C=C/c3ccncc3Cl)ccc2c1` [Compound 15, (E)-2-(2-(3-Chloropyridin-4-yl)vinyl)-6-methoxyquinoline] the “Thioflavin T assay Ki” value was “no binding”.
In the case of `COc1ccc2nc(/C=C/c3ccncc3Br)ccc2c1` [Compound 16, (E)-2-(2-(3-Bromopyridin-4-yl)vinyl)-6-methoxyquinoline], the “Thioflavin T assay Ki” value is reported as “moderate binding”.

Same assay, conditions: read-out: Thioflavin T assay Ki, mean ± SD, at least three experiments, NB = no binding was measurable (concentrations up to 10 μM)

`COc1cccc2nc(/C=C/c3ccccc3)ccc12` [Compound 1, (E)-5-Methoxy-2-styrylquinoline] and `COc1cccc2ccc(/C=C/c3ccccc3)nc12` [Compound 4, (E)-8-Methoxy-2-styrylquinoline] cannot be ordered by Ki: over 10 µM for the first, over 10 µM for the second.

`COc1cc2ccccc2nc1/C=C/c1ccncc1` [Compound 5, (E)-3-Methoxy-2-(2-(pyridin-4-yl)vinyl)quinolone] and `COc1cc(/C=C/c2ccncc2)nc2ccccc12` [Compound 6, (E)-4-Methoxy-2-(2-(pyridin-4-yl)vinyl)quinolone] cannot be ordered by Ki: over 10 µM for the first, over 10 µM for the second.

First: COc1cccc2nc(/C=C/c3ccncc3)ccc12 [Compound 7, (E)-5-Methoxy-2-(2-(pyridin-4-yl)vinyl)quinolone]
Second: COc1cccc2ccc(/C=C/c3ccncc3)nc12 [Compound 10, (E)-8-Methoxy-2-(2-(pyridin-4-yl)vinyl)quinolone]
The Ki of the first is lower: 0.056 ± 0.04 µM for the first, over 10 µM for the second. The first binds more tightly here.

Compared with `COc1ccc2nc(/C=C/c3ccncc3)ccc2c1` [Compound 8, (E)-6-Methoxy-2-(2-(pyridin-4-yl)vinyl)quinolone], `COc1ccc2ccc(/C=C/c3ccncc3)nc2c1` [Compound 9, (E)-7-Methoxy-2-(2-(pyridin-4-yl)vinyl)quinolone] is higher in Ki: 0.052 ± 0.038 µM for the first, over 10 µM for the second.

Compared with `COc1ccc2nc(/C=C/c3ccnc(F)c3)ccc2c1` [Compound 11, (E)-2-(2-(2-Fluoropyridin-4-yl)vinyl)-6-methoxyquinoline], `COc1ccc2nc(/C=C/c3ccnc(OC)c3)ccc2c1` [Compound 13, (E)-6-Methoxy-2-(2-(2-methoxypyridin-4-yl)vinyl)quinolone] is lower in Ki: over 10 µM for the first, 0.052 ± 0.021 µM for the second.

First: COc1cc(/C=C/c2ccc3cc(OCCF)ccc3n2)ccn1 [Compound 14, (E)-6-(2-Fluoroethoxy)-2-(2-(2-methoxypyridin-4-yl)vinyl)quinolone]
Second: COc1ccc2nc(/C=C/c3ccncc3Cl)ccc2c1 [Compound 15, (E)-2-(2-(3-Chloropyridin-4-yl)vinyl)-6-methoxyquinoline]
The Ki of the first is lower: 0.018 ± 0.001 µM for the first, over 10 µM for the second.

`COc1ccc2nc(-c3noc(-c4cccnc4)n3)ccc2c1` [Compound 26, 3-(6-Methoxyquinolin-2-yl)-5-(pyridin-3-yl)-1,2,4-oxadiazole] and `COc1ccc2nc(-c3noc(-c4ccn5ccnc5c4)n3)ccc2c1` [Compound 31, 5-(Imidazo[1,2-a]pyridin-7-yl)-3-(6-methoxyquinolin-2-yl)-1,2,4-oxadiazole] cannot be ordered by Ki: over 10 µM for the first, over 10 µM for the second.

`COCOc1ccc2nc(-c3noc(-c4ccnc(OC)c4)n3)ccc2c1` [Compound 29, 3-(6-(Methoxymethoxy)quinolin-2-yl)-5-(2-methoxypyridin-4-yl)-1,2,4-oxadiazole] and `COc1cc(-c2nc(-c3ccc4cc(OC(C)C)ccc4n3)no2)ccn1` [Compound 30, 3-(6-Isopropoxyquinolin-2-yl)-5-(2-methoxypyridin-4-yl)-1,2,4-oxadiazole] cannot be ordered by Ki: over 10 µM for the first, over 10 µM for the second.

`CC(C)Oc1ccc2nc(-c3noc(-c4ccn5ccnc5c4)n3)ccc2c1` [Compound 32, 5-(Imidazo[1,2-a]pyridin-7-yl)-3-(6-isopropoxyquinolin-2-yl)-1,2,4-oxadiazole] and `COCOc1ccc2nc(-c3noc(-c4ccn5ccnc5c4)n3)ccc2c1` [Compound 34, 5-(Imidazo[1,2-a]pyridin-7-yl)-3-(6-(methoxymethoxy)-quinolin-2-yl)-1,2,4-oxadiazole] cannot be ordered by Ki: over 10 µM for the first, over 10 µM for the second.

Compound `FCCOc1ccc2nc(-c3noc(-c4ccn5ccnc5c4)n3)ccc2c1` [Compound 33, 3-(6-(2-Fluoroethoxy)quinolin-2-yl)-5-(imidazo[1,2-a]pyridin-7-yl)-1,2,4-oxadiazole] has a Ki of over 10 µM.

Source: paper PMC5870887 (Bioorganic & medicinal chemistry letters, 2018)
